For series [1], the system named is Wnt/β-Catenin signaling pathway. In words: Wnt signaling luciferase (TOPflash) reporter gene assay. Particulars: for IC50: luciferase reporter gene assay, mean of three independent experiments, read-out: IC50 (nM) to inhibit the Wnt signaling activity. It counts as cell-based. From the text: A dual-luciferase gene reporter assay was used to test inhibitory activities of new compounds on Wnt signaling. […] Therefore, the effects of new compounds on AMPK was examined. […]
For orientation: Reporter assays use an easily measured gene product as a stand-in for the process of interest.

Series [2] can be described thus: Cytotoxicity (CC50) during the luciferase gene reporter assay. It counts as cell-based. Conditions: human, HEK293 cells; short treatment duration of the luciferase gene reporter assay.

The source of these data is patent US20240279201A1, “DUAL WNT SIGNALING PATHWAY INHIBITORS AND AMPK ACTIVATORS FOR TREATMENTS OF DISEASE” (priority 2021, published 2024).

SMILES strings stand for the structures.

What is called inhibition is the relative decrease from the control value, in per cent. Read a high inhibition as a strong effect. For orientation: IC50 means the point on the concentration scale where inhibition reaches its midpoint. In general, CC50 refers to the concentration giving 50% cytotoxicity. Higher therefore signals lower toxicity to the cells. For the compound `Cc1c(C(=O)Nc2nc3ccccc3s2)nnn1-c1ccc(Br)cc1` [YA1086, N-(Benzo[d]thiazol-2-yl)-1-(4-bromophenyl)-5-methyl-1H-1,2,3-triazole-4-carboxamide], in series [1], at 1 µM the inhibition was 32% and the IC50 is greater than 1000 nM. The CC50 in series [2] is greater than 92000 nM.
Regarding `O=C(Nc1ccc2ccccc2n1)c1nnn(-c2ccccc2F)n1` [YA70032, 2-(2-Fluorophenyl)-N-(quinolin-2-yl)-2H-tetrazole-5-carboxamide], the IC50 in series [1] is greater than 1000 nM. Besides, the CC50 in series [2] is greater than 92000 nM.
`Cc1ccccc1-n1nnc(C(=O)Nc2ccc3cccc(CN4CCN(C(=O)OC(C)(C)C)CC4)c3n2)c1C` [YA6160, tert-Butyl 4-((2-(5-methyl-1-(o-tolyl)-1H-1,2,3-triazole-4-carboxamido)quinolin-8-yl)methyl)piperazine-1-carboxylate]: the IC50 in series [1] was greater than 1000 nM. In series [2], the CC50 was greater than 92000 nM.
For `Cc1c(C(=O)Nc2nc3ccccc3s2)cnn1-c1cccc(Cl)c1F` [YA4021, N-(Benzo[d]thiazol-2-yl)-1-(3-chloro-2-fluorophenyl)-5-methyl-1H-pyrazole-4-carboxamide], in that order: 9.8 nM and greater than 92000 nM.
On the same counts, the results for `Cc1c(C(=O)Nc2ncc(-c3ccccc3)s2)cnn1-c1ccccc1Br` [YA6152, 1-(2-Bromophenyl)-5-methyl-N-(5-phenylthiazol-2-yl)-1H-pyrazole-4-carboxamide] are 220 nM and greater than 92000 nM.
As for `CC(C)c1c(C(=O)Nc2nc3ccc(F)cc3s2)nnn1-c1ccccc1F` [YA6172, N-(6-Fluorobenzo[d]thiazol-2-yl)-1-(2-fluorophenyl)-5-isopropyl-1H-1,2,3-triazole-4-carboxamide], in series [1], the inhibition at 1 µM is 98% and the IC50 was 7.6 nM. Also, the CC50 in series [2] is greater than 92000 nM.
For `Cc1c(C(=O)Nc2nc3ccc(F)cc3s2)nnn1-c1ccccc1F` [YA4155, N-(6-Fluorobenzo[d]thiazol-2-yl)-1-(2-fluorophenyl)-5-methyl-1H-1,2,3-triazole-4-carboxamide], in that order: 96%, 0.4 nM and greater than 92000 nM.
On the same counts, the results for `Cc1c(C(=O)Nc2nc3ccccc3s2)nnn1-c1ccc(F)cc1` [YA1076, N-(Benzo[d]thiazol-2-yl)-1-(4-fluorophenyl)-5-methyl-1H-1,2,3-triazole-4-carboxamide] are 15%, greater than 1000 nM and greater than 92000 nM.
For `Cc1cc(Br)ccc1-n1nnc(C(=O)Nc2nc3ccccc3s2)c1C` [YA6009], in that order: 15%, greater than 1000 nM and greater than 92000 nM.
In the case of `Cc1c(C(=O)Nc2cnc3ccccc3n2)nnn1-c1ccccc1` [YA6141, 5-Methyl-1-phenyl-N-(quinoxalin-2-yl)-1H-1,2,3-triazole-4-carboxamide], the IC50 in series [1] worked out at 1.7 nM. Moreover, in series [2], the CC50 was greater than 92000 nM.
On the same counts, the results for `Cc1ccccc1-n1nnc(C(=O)Nc2ccc3cccc(Br)c3n2)c1C` [YA6146, N-(8-Bromoquinolin-2-yl)-5-methyl-1-(o-tolyl)-1H-1,2,3-triazole-4-carboxamide] are greater than 1000 nM and greater than 92000 nM.
On the same counts, the results for `Cc1ccccc1-n1nnc(C(=O)Nc2cccc3ncccc23)c1C` [YA61693, 5-Methyl-N-(quinolin-5-yl)-1-(o-tolyl)-1H-1,2,3-triazole-4-carboxamide] are greater than 1000 nM and greater than 92000 nM.
Take `Cc1ccccc1-n1nnc(C(=O)Nc2nc(-c3ccccc3F)cs2)c1C` [YA4143]: the IC50 in series [1] was greater than 1000 nM. This compound also displayed a CC50 in series [2] greater than 92000 nM.
On the same counts, the results for `Cc1ccccc1-n1nnc(C(=O)Nc2ccc3cnccc3c2)c1C` [YA61692, N-(Isoquinolin-6-yl)-5-methyl-1-(o-tolyl)-1H-1,2,3-triazole-4-carboxamide] are greater than 1000 nM and greater than 92000 nM.
On to `COc1ccccc1-n1nnc(C(=O)Nc2cnc3ccccc3n2)c1C` [YA6136, 1-(2-Methoxyphenyl)-5-methyl-N-(quinoxalin-2-yl)-1H-1,2,3-triazole-4-carboxamide], for which the IC50 in series [1] was 1.8 nM. The CC50 in series [2] is greater than 92000 nM.
On the same counts, the results for `Cc1c(C(=O)Nc2nc(-c3ccccc3)cs2)cnn1-c1ccccc1Br` [YA4087, 1-(2-Bromophenyl)-5-methyl-N-(4-phenylthiazol-2-yl)-1H-pyrazole-4-carboxamide] are greater than 1000 nM and greater than 92000 nM.
On the same counts, the results for `Cc1ccc2nc(NC(=O)c3nnn(-c4ccccc4C)c3C)sc2c1` [YA4069, 5-Methyl-N-(6-methylbenzo[d]thiazol-2-yl)-1-(o-tolyl)-1H-1,2,3-triazole-4-carboxamide] are 15 nM and greater than 92000 nM.
Consider `Cc1ccccc1-n1nnc(C(=O)Nc2nc3c(Br)cccc3s2)c1C` [YA4097, N-(4-Bromobenzo[d]thiazol-2-yl)-5-methyl-1-(o-tolyl)-1H-1,2,3-triazole-4-carboxamide], for which, in series [1], testing at 1 µM gave an inhibition of 11% and the IC50 was greater than 1000 nM. Also, the CC50 in series [2] is greater than 92000 nM.
On the same counts, the results for `Cc1ccccc1-n1nnc(C(=O)Nc2nc3ccc(Br)cc3s2)c1C` [YA4059, N-(6-Bromobenzo[d]thiazol-2-yl)-5-methyl-1-(o-tolyl)-1H-1,2,3-triazole-4-carboxamide] are 31%, greater than 1000 nM and greater than 92000 nM.
On the same counts, the results for `Cc1c(C(=O)Nc2nc3ccccc3s2)nnn1-c1ccccc1Br` [YA4003, N-(Benzo[d]thiazol-2-yl)-1-(2-bromophenyl)-5-methyl-1H-1,2,3-triazole-4-carboxamide] are 100%, 1.8 nM and greater than 92000 nM.
In the case of `Cc1ccccc1-n1nnc(C(=O)Nc2ccc3cccnc3n2)c1C` [YA6047, 5-Methyl-N-(1,8-naphthyridin-2-yl)-1-(o-tolyl)-1H-1,2,3-triazole-4-carboxamide], the IC50 in series [1] was greater than 1000 nM. Besides, the CC50 in series [2] is greater than 92000 nM.
For the compound `CCc1c(C(=O)Nc2nc3ccccc3s2)cnn1-c1ccccc1` [YA6143, N-(Benzo[d]thiazol-2-yl)-5-ethyl-1-phenyl-1H-pyrazole-4-carboxamide], in series [1], the IC50 was 3.6 nM. In addition, the CC50 in series [2] was greater than 92000 nM.
On the same counts, the results for `Cc1ccccc1-n1nnc(C(=O)Nc2cnc3ccccc3c2)c1C` [YA6161, 5-Methyl-N-(quinolin-3-yl)-1-(o-tolyl)-1H-1,2,3-triazole-4-carboxamide] are greater than 1000 nM and greater than 92000 nM.
Consider `Cc1cccc(-n2nnc(C(=O)Nc3nc4ccccc4s3)c2C)c1C` [YA4037], for which, in series [1], 1 µM produced 83% inhibition and the IC50 was found to be 18 nM. In addition, in series [2], the CC50 was greater than 92000 nM.
On the same counts, the results for `Cc1ccccc1-n1nnc(C(=O)Nc2nc3ccccc3o2)c1C` [YA4067] are 14%, greater than 1000 nM and greater than 92000 nM.
On to `Cc1ccccc1-n1nnc(C(=O)Nc2nc3ccc(C(F)(F)F)cc3s2)c1C` [YA4063, 5-Methyl-1-(o-tolyl)-N-(6-(trifluoromethyl)benzo[d]thiazol-2-yl)-1H-1,2,3-triazole-4-carboxamide], for which, in series [1], 1 µM produced 24% inhibition and the IC50 is greater than 1000 nM. The compound also returned a CC50 in series [2] greater than 92000 nM.
On to `CC(C)c1c(C(=O)Nc2nc3ccccc3s2)cnn1-c1ccccc1` [YA6144, N-(Benzo[d]thiazol-2-yl)-5-isopropyl-1-phenyl-1H-pyrazole-4-carboxamide], for which the IC50 in series [1] is greater than 1000 nM. Besides, the CC50 in series [2] is greater than 92000 nM.
On the same counts, the results for `Cc1ccccc1-n1nnc(C(=O)Nc2ncc3ccccc3n2)c1C` [YA6061, 5-Methyl-N-(quinazolin-2-yl)-1-(o-tolyl)-1H-1,2,3-triazole-4-carboxamide] are greater than 1000 nM and greater than 92000 nM.
For `Cc1ccccc1-n1nnc(C(=O)Nc2nc3ccc(F)cc3s2)c1C` [YA4103, N-(6-Fluorobenzo[d]thiazol-2-yl)-5-methyl-1-(o-tolyl)-1H-1,2,3-triazole-4-carboxamide], in that order: 4 nM and greater than 92000 nM.
On the same counts, the results for `Cc1ccccc1-n1nnc(C(=O)Nc2nc(-c3ccccc3Br)cs2)c1C` [YA4135] are greater than 1000 nM and greater than 92000 nM.
Take `Cc1cccc(F)c1-n1nnc(C(=O)Nc2nc3ccccc3s2)c1C` [YA1042, N-(Benzo[d]thiazol-2-yl)-1-(2-fluoro-6-methylphenyl)-5-methyl-1H-1,2,3-triazole-4-carboxamide]: in series [1], the inhibition at 1 µM amounted to 92% and the IC50 was 3.3 nM. For the same compound, the CC50 in series [2] was greater than 92000 nM.
For `Cc1ccccc1-n1nnc(C(=O)Nc2nc3ccc(OC(F)(F)F)cc3s2)c1C` [YA4065, 5-Methyl-1-(o-tolyl)-N-(6-(trifluoromethoxy)benzo[d]thiazol-2-yl)-1H-1,2,3-triazole-4-carboxamide], in that order: 16%, greater than 1000 nM and greater than 92000 nM.
Regarding `Cc1ccccc1-n1ncc(C(=O)Nc2ccc(-c3ccccc3)cc2)c1C` [YA7016, N-([1,1′-biphenyl]-4-yl)-5-methyl-1-(o-tolyl)-1H-pyrazole-4-carboxamide], the IC50 in series [1] is greater than 1000 nM. In series [2], the CC50 was greater than 92000 nM.
On the same counts, the results for `CCc1c(C(=O)Nc2nc3ccc(F)cc3s2)nnn1-c1ccccc1F` [YA4165, 5-Ethyl-N-(6-fluorobenzo[d]thiazol-2-yl)-1-(2-fluorophenyl)-1H-1,2,3-triazole-4-carboxamide] are 0.5 nM and greater than 92000 nM.
On the same counts, the results for `Cc1ccc(-c2csc(NC(=O)c3nnn(-c4ccccc4C)c3C)n2)cc1` [YA4141] are greater than 1000 nM and greater than 92000 nM.
For `Cc1ccccc1-n1ncc(C(=O)Nc2ccc(-c3ccccc3)cn2)c1C` [YA7018, 5-Methyl-N-(5-phenylpyridin-2-yl)-1-(o-tolyl)-1H-pyrazole-4-carboxamide], in that order: greater than 1000 nM and greater than 92000 nM.
